Source: patent US8299097B2, “Methods for treating inflammatory disorders” (The Brigham and Women's Hospital, Inc., priority 2008, dated 2012)

Tests used:
human P2Y12 = human P2Y12 (Homo sapiens, UniProt Q9H244); assay: ERK activation (phosphorylation immunoblot) in P2Y12-expressing CHO cells; type: cell-based; parameters: polyhistidine (HIS) tag (C); expressed in transfected cells; conditions: for ERK activation by agonist: stimulated 15 min
Experimental: FIG. 1. Activation by recombinant human P2Y12 receptors in response to cys-LTs. The human P2Y12 receptor cDNA was cloned in forward and reverse orientation into the expression vector pEF1/His B and transfected into CHO cells using Fugene HD reagent. Stably-expressing clones were selected using G418 (1000 μg/ml), and expression of the construct was confirmed by cytofluorographic detection of the HIS tag. 1A. […] Results in second experiment were identical. 1B. SDS-PAGE immunoblots showing phosphorylation of ERK2 by CHO cells stably expressing human P2Y12 receptors in reverse (negative control) or forward orientations. […] The blots were stripped and re-probed with an antibody (Ab) recognizing total ERK1 and ERK2. […] 1C. Effect of the selective P2Y12 receptor antagonist 2-MesAMP (MeS) on ligand-induced ERK phosphorylation. P2Y12 receptor expressing CHO cells were stimulated with the same doses of agonists used in 1A, in the absence or presence of 2-MesAMP (100 μM). 1D. Comparison of P2Y12 receptor-mediated responses to cys-LTs with those of recombinant human CysLT1R and CysLT2R expressed in CHO cells, and the effect of the CysLT1R antagonist MK571 (1 μM). Data in 1B-1D are from individual experiments that were repeated at least 3 times with similar results.
FIG. 8. […] Cells were stably transfected with the human P2Y12 construct and stimulated for 15 minutes with the indicated ligand concentrations. […] Results in a second experiment were similar.
A P2Y12 receptor cDNA was amplified by reverse transcriptase polymerase chain reaction (RT-PCR) from RNA extracted from primary hMCs and cloned into a mammalian expression vector. Expression was confirmed by detection of a histidine (HIS) tag by flow cytometry. Another cohort of CHO cells were stably transfected with a P2Y12 receptor construct in reverse orientation as a negative control. […] The cys-LT-induced ERK activation blocked by pre-treatment of the cells with pertussis toxin (PTX), was attenuated by treatment with the P2Y12 receptor-selective antagonist 2-methylthioadenosine monophosphate (2-MesAMP) (FIG. 1C), and was resistant to MK571, an inhibitor that blocks CysLT1R and some P2Y receptors (Mamedova, L., et al. 2005. Biochem. Pharmacol. 71:115-125). […] These responses were resistant to PTX and 2-MesAMP, and susceptible to MK571 in the case of the CysLT1R transfectants.
A human P2Y12 receptor cDNA was amplified by 30 cycles of PCR from reverse-transcribed total RNA extracted from primary cord blood hMCs. The primer sequences were 5′-[…] (SEQ ID NO: 1) and 3′-[…] (SEQ ID NO: 2). The fragment was cloned into a TA vector (INVITROGEN™). After verifying the nucleotide sequence, the fragment was subcloned into the multiple cloning site of the expression vector pEF1/His B, encoding a C-terminal polyhistidine (HIS) tag. […]

LAD2 cells = assay: MIP-1β generation by LAD2 cells (ELISA); type: cell-based, human
Experimental: FIG. 2. Requirement for P2Y12 receptors in LTE4-mediated LAD2 cell activation. 2A. Calcium flux of LAD2 cells stimulated with the indicated agonists (500 nM) in the presence or absence of the P2Y12 receptor-selective antagonist 2-MeSAMP (100 μM). […] 2B. […] Cells sensitized overnight with IgE and challenged with anti-IgE were used as the positive control. 2C. […] Results in 2B and 2C are mean±SEM from three independent experiments each. 2D. Effect of shRNA-mediated knockdown of P2Y12 receptor mRNA expression by LAD2 cells.
FIG. 9. Effect of apyrase treatment on LT-mediated activation of LAD2 cells. 9A. […] Concentrations of MIP-1β were measured by ELISA. 9B. […] Lysates were resolved by SDS-PAGE and probed with the indicated antibodies against phospho- and total ERK. Results in 9A are the mean±½ range from two experiments, while 9B is representative of two experiments.
Pre-treatment of the LAD2 cells with 2-MesAMP blocked the LTE4-mediated increment in MIP-1β production by >50% (FIG. 2B). […] To exclude potential off-target effects of the inhibitors, samples of LAD2 cells were transfected with lentiviruses encoding a P2Y12 sequence-specific shRNA, a CysLT1R-specific shRNA, or an empty vector control before stimulation. […] LTE4- and LTD4-dependent production of PGD2 were abrogated by the knockdowns of P2Y12 and CysLT1R, respectively (FIG. 2C, bottom). Neither GPCR knockdown altered MIP-1β generation or PGD2 production in response to IgE-anti-IgE (FIG. 2C). LTE4-mediated MIP-1β generation (FIG. 9A) and ERK activation (FIG. 9B) were not altered by treatment of LAD2 cells with apyrase to degrade extracellular ADP.
The concentration of MIP-1β was measured by an ELISA (ENDOGEN®). PGD2 was quantitated by a PGD2-methoxylamine hydrochloride (PGD2-MOX) assay.

Chain of human P2Y12 (Q9H244 whole entry): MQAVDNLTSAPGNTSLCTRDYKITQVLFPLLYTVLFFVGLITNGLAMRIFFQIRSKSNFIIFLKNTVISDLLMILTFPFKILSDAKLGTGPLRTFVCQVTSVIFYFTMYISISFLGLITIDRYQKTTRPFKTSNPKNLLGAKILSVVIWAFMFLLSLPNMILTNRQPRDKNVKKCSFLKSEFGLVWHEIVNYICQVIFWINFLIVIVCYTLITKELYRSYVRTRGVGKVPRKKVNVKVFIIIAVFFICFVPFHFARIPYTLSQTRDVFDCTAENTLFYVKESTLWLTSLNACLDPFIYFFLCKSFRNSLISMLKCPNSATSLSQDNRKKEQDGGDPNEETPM

ERK activation by agonist (human P2Y12) | effect on cys-LT-induced ERK activation (human P2Y12; 2-MesAMP 100 μM, MK571 1 μM) | Structure (SMILES) | MIP-1β generation (LAD2 cells; LTE4 100 and 500 nM, 6 h) | effect on MIP-1β response to LTD4 and LTE4 (LAD2 cells; 2-MesAMP 100 μM, MK571 1 μM)
robust, dose-dependent ERK activation |  | CCCCC/C=C\C\C=C/C=C/C=C/[C@@H](SC[C@H](N)C(=O)O)[C@@H](O)CCCC(=O)O [LTE4] | induced the generation of large amounts of MIP-1β | 
 | resistant | CN(C)C(=O)CCSC(SCCC(=O)O)c1cccc(/C=C/c2ccc3ccc(Cl)cc3n2)c1 (centres unmarked) [MK571] |  | suppressed the response to both ligands
robust, dose-dependent ERK activation |  | CCCCC/C=C\C\C=C/C=C/C=C/[C@@H](SC[C@H](N)C(=O)NCC(=O)O)[C@@H](O)CCCC(=O)O [LTD4] |  | 
